From patent publication EP4796130A1, “ANTI-TISSUE FACTOR ANTIBODY-DRUG CONJUGATE COMPRISING CAMPTOTHECIN DERIVATIVE” (Celltrion, Inc., priority 2023, dated 2025)
Where two headings read alike, the source gives them in different places. Where a SMILES comes first, the peptide text is derived from it. [ ]: non-standard residue; d: D form. The star is where a group is joined. Dolaproine = CO[C@@H]([C@@H]1CCCN1)[C@@H](C)C(=O)O; Dil = CC[C@H](C)[C@H](NC)[C@@H](CC(=O)O)OC; X1 = C[C@@H](N*)[C@@H](O)c1ccccc1; NMeV = CN[C@H](C(=O)O)C(C)C

Tests used:
Assay type in all cases: cell-based
[1] = test system: T47D (a breast cancer cell line); experiment: cells; conditions: Homo sapiens, 144 h
[2] = test system: HPAF-II (a pancreatic cancer cell line); experiment: In-vitro cell viability assay (CellTiter-Glo); conditions: Homo sapiens, 144 h
[3] = test system: KYSE-520 (an esophageal cancer cell line); experiment: In-vitro cell viability assay (CellTiter-Glo); conditions: Homo sapiens
[4] = test system: MCF-7 (a breast cancer cell line); experiment: In-vitro cell viability assay (CellTiter-Glo); conditions: MCF7a, 144 h
[5] = test system: A431 (a skin cancer cell line); experiment: In-vitro cell viability assay (CellTiter-Glo); conditions: Homo sapiens, A-431, 144 h
[6] = test system: Caski (a cervical cancer cell line); experiment: In-vitro cell viability assay (CellTiter-Glo); conditions: Homo sapiens, Ca-Ski, 144 h
[7] = 6 days incubation, read-out: IC50

Row | SMILES | IC50 [1, 7] [nM] | IC50 [2, 7] [nM] | IC50 ([3]; 144 h, KYSE-520, 6 days incubation, read-out: IC50) [nM] | IC50 ([4]; MCF-7, 6 days incubation, read-out: IC50) [nM] | IC50 ([5]; A431, 6 days incubation, read-out: IC50) [nM] | IC50 ([6]; Caski, 6 days incubation, read-out: IC50) [nM] | IC50 [1] [nM] | IC50 [2] [nM] | IC50 ([3]; KYSE-520, 144 h) [nM] | IC50 [4] [nM] | IC50 [5] [nM] | IC50 [6] [nM]
1 | CC[C@H](C)[C@@H]([C@@H](CC(=O)N1CCC[C@H]1[C@H](OC)[C@@H](C)C(=O)N[C@H](C)[C@@H](O)c1ccccc1)OC)N(C)C(=O)[C@@H](NC(=O)[C@@H](NC)C(C)C)C(C)C [MMAE, monomethyl auristatin E] (H-[NMeV]V[Dil][Dolaproine]-X1) | 0.16 | 0.045 | 0.12 | 0.82 | 0.032 | 0.034 |  |  |  |  |  | 
2 | CC[C@@]1(O)C(=O)OCc2c1cc1n(c2=O)Cc2c-1nc1cc3c(c4c1c2[C@@H](NC(=O)[C@@H](C)O)CC4)OCO3 [PBX-7016] |  |  |  |  |  |  | 0.46 | 2.87 | 2.06 | 6.02 | 1.94 | 0.75
